Results taken from patent publication US11479550B2, “EP4 antagonist” (ONO PHARMACEUTICAL CO., LTD., priority 2017, dated 2022).

Key:
human EP3 receptor = human EP3 receptor (Homo sapiens (Human), UniProt P43115); experiment: EP3 binding activity measurement experiment using prostanoid receptor subtype expressing cells; settings: human EP3 receptor expressing cell membrane fraction; [3H]-PGE2 2.5 nmol/L; Ki calculated from estimated IC50
Procedure: To each well of a 96 well plate, 10 μL of a medium (dimethyl sulfoxide; DMSO) which had been 10-fold diluted with an assay buffer solution (10 mmol/L KH2PO4—KOH containing 1 mmol/L EDTA, 10 mmol/L Mg^2+ and 100 mmol/L NaCl, pH6.0) or a DMSO solution of a test compound (final concentration of DMSO: 0.5%), 90 μL of assay buffer solution, 50 μL of 10 nmol/L [^3H]-PGE2 (final concentration: 2.5 nmol/L), and 50 μL of human EP3 receptor expressing cell membrane fraction (manufactured by Millipore) (membrane protein mass: 2.5 μg) were placed, and subjected to incubation at room temperature. In nonspecific binding group, instead of the medium, […] of PGE2 was added (final concentration of PGE2: 10 μmol/L). After 60 minutes, a membrane fraction was subjected to suction filtration using a cell harvester, and collected onto a glass fiber (GF/B) plate (hereinafter, “filter plate”) which had been wetted with a washing buffer solution (10 mmol/L KH2PO4—KOH containing 100 mmol/L NaCl, pH6.0) in advance. Furthermore, an operation of adding about 0.2 mL of the washing buffer solution to the 96 well plate after suction filtration, and carrying out suction filtration was repeated twice, and the remaining membrane fractions were collected. The filter plate was washed with […] of washing buffer solution twice, and then dried at 50° C. to 60° C. for about 60 minutes. After an accessary back seal was attached to the bottom surface of the filter plate, about 50 μL per well of liquid scintillation cocktail was added to the filter plate, and a scaling film sheet was attached to the upper surface of the filter plate. The filter plate was shaken, and then radioactivity (cpm) of the filter plate was measured using a microplate scintillation counter. A specific binding amount of [^3H]-PGE2 to EP3 receptor was calculated by subtracting the radioactivity of the nonspecific binding group from the radioactivity other than the radioactivity of the nonspecific binding group. The inhibition rate by the test compound was calculated from the specific binding amount of [^3H]-PGE2 in a medium group and the compound of the present invention group, a Ki value (dissociation constant of the test compound) was calculated from estimated IC50 value (the concentration of the test compound required for inhibiting 50% with respect to the specific binding amount of the medium group) according to the following formula.
Note here that the Kd value of [^3H]-PGE2 was estimated from nonlinear regression analysis by calculating a specific binding amount at the time when [^3H]-PGE2 having various concentrations according to the above method was added. As a result, it was shown that the compound of the present invention had weak binding activity with respect to EP3 receptor, and was an antagonist selective to the EP4 receptor. Note here that binding activities with respect to EP1 and EP2 receptors can be measured by the same method as the measurement experiment of the EP3 binding activity measurement experiment.

human EP4 receptor = human EP4 receptor (Homo sapiens (Human), UniProt P35408); experiment: EP4 antagonistic activity measurement experiment using prostanoid receptor subtype expressing cells; type: cell-based; settings: CHO cells expressing human EP4 receptor; inhibition of cAMP production by PGE2 10 nM; 30 minutes at room temperature
Chain of human EP4 receptor (P35408 whole entry): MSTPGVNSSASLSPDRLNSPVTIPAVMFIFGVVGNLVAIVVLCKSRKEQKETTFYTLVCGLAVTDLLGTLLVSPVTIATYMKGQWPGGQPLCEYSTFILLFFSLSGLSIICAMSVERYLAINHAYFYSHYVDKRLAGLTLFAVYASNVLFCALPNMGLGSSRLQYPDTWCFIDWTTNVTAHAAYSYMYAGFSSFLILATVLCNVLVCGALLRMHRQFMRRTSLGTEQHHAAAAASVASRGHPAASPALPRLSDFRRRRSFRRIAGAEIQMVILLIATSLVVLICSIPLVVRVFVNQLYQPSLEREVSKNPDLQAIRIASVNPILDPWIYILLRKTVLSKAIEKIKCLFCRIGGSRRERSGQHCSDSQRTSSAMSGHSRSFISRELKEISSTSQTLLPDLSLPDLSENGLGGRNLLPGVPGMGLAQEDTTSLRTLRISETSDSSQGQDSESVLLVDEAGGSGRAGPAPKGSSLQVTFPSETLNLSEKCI
Procedure: CHO cells expressing human EP4 receptor subtypes were prepared according to the methods of Nishigaki et al. (Non-Patent Literature 4), and used for experiment. Cells cultured to subconfluent were detached, and suspended in an assay medium (MEM containing 1 mmol/L IBMX, 1% HSA) such that a concentration became 1×10^6 cells/mL. For reaction, PGE2 was added to the cell suspension (25 μL) in a final concentration of 10 nmol/L, either alone or as a 25-μL PGE2 solution containing the test compound. After 30 minutes of reaction at room temperature, the amount of cAMP in the cells was quantified according to the method in the descriptions of the cAMP assay kit (CISBIO).
Note here that the antagonistic effect (IC50 value) of the test compound was calculated as a value that represents an inhibition rate against a reaction with PGE2 alone at 10 nM, a concentration that produces a submaximal cAMP producing effect.

Chain of human EP3 receptor (P43115 whole entry): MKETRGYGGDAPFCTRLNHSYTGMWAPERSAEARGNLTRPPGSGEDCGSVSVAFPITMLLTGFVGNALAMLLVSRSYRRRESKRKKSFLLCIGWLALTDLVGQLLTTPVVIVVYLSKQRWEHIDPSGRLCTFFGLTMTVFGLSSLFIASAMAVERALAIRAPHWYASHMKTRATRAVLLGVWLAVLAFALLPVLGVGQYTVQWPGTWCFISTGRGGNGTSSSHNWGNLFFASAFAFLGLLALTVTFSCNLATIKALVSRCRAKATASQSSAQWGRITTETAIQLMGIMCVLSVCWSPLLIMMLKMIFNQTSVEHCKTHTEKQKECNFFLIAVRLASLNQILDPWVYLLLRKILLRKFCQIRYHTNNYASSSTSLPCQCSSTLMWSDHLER

| Ki (human EP3 receptor) [nM] | IC50 (human EP4 receptor) [nM] | SMILES |
| --- | --- | --- |
| 410 | 0.7 | COCCNC(=O)c1ccc2c(C)cn(C(C)C(=O)Nc3cc(Cn4cc(C)cn4)ccc3CCCC(=O)O)c2c1 (single isomer, unassigned) [Example 3-9(2), 4-{2-[(2-{6-[(2-methoxyethyl)carbamoyl]-3-methyl-1H-indol-1-yl}propanoyl)amino]-4-[(4-methyl-1H-pyrazol-1-yl)methyl]phenyl}butanoic acid] |
| 1600 | 6.3 | COCCNC(=O)c1ccc2c(c1)c(C)cn2C(C)C(=O)Nc1cc(Cn2cc(C)cn2)ccc1CCCC(=O)O (single isomer, unassigned) [Example 8-13(2), 4-{2-[(2-{5-[(2-methoxyethyl)carbamoyl]-3-methyl-1H-indol-1-yl}propanoyl)amino]-4-[(4-methyl-1H-pyrazol-1-yl)methyl]phenyl}butanoic acid] |

The next lines start with the molecule.

| SMILES | Ki (human EP3 receptor) [nM] | IC50 (human EP4 receptor) [nM] |
| --- | --- | --- |
| CNC(=O)c1ccc2c(C)cn(C(C)C(=O)Nc3cc(CN4CCCS4(=O)=O)ccc3CCCC(=O)O)c2c1 (stereo not drawn) [Example 1, 4-{4-[(1,1-dioxide-1,2-thiazolidin-2-yl)methyl]-2-({2-[3-methyl-6-(methylcarbamoyl)-1H-indol-1-yl]propanoyl}amino)phenyl}butanoic acid] | > 10000 | 27 |
| CNC(=O)c1ccc2c(C)cn(C(C)C(=O)Nc3cc(C(=O)c4cnn(C)c4)ccc3CCCC(=O)O)c2c1 (stereo not drawn) [Example 18-5(2)] | 120 | 3.2 |
| COCCNC(=O)c1ccc2c(C)cn(C(C)C(=O)Nc3cc(C#N)ccc3CCCC(=O)O)c2c1 (single isomer, unassigned) [Example 11-15(2), 4-{4-cyano-2-[(2-{6-[(2-methoxyethyl)carbamoyl]-3-methyl-1H-indol-1-yl}propanoyl)amino]phenyl}butanoic acid] | 2300 | 1.9 |
| CNC(=O)c1ccc2c(c1)c(C)cn2C(C)C(=O)Nc1cc(Cn2cc(C)cn2)ccc1CCCC(=O)O (single isomer, unassigned) [Example 8-3(2), 4-{2-({2-[3-methyl-5-(methylcarbamoyl)-1H-indol-1-yl]propanoyl}amino)-4-[(4-methyl-1H-pyrazol-1-yl)methyl]phenyl}butanoic acid] | 1500 | 4.8 |
